Assay results reported in patent US12715867B2, “Agonists of free fatty acid receptor 1 and their use in diseases associated with said receptor” (HALO Therapeutics Ltd, priority 2020, dated 2026).

Test system: C57Bl/6N male mice
Assay: OGTT testing in C57Bl/6N male mice (oral glucose tolerance test)
Format: in vivo
Settings: single per os dose 60 min before glucose 2 g/kg; Z1558775684 20 mg/kg, Metformin 300 mg/kg; compared with Vehicle-treated group; 5 mice per group
Experimental: Values are expressed as means of 5 animals tested. For glucose tolerance test (GTT), mice were orally treated with glucose at dose of 2 g/kg at the dose volume of 10 ml/kg after a 6-hour fasting. Glucose measurements were performed immediately before compound treatment (−60 min), at −30 min, 0 min (before glucose administration), and then 15, 30, 60, 90 and 120 min after glucose administration.
Example 87: OGTT Testing in C57Bl/6N Male Mice
Each experimental group consisted of five male C57Bl/6N mice. Animals were dosed once perorally with 20 mg/kg of tested compound Z1558775684. A control group was dosed with vehicle on the same schedule. Metformin at the dosage of 300 mg/kg was used as reference compound.
Compound Z1558775684 was dissolved/suspended in DMSO—PEG400—physiological saline (20%:50%:30%) at concentration 4 mg/ml. Metformin was dissolved in the same vehicle at concentration 60 mg/ml. The test samples were administered per os in the volume corresponding to 5 ml/kg body weight.
Single doses of test samples were administered 60 min before glucose treatment at 3 p.m.
The blood glucose level was measured after 6-hour fasting using Call Plus glucometer and specific test strips. Blood was obtained from the tail vein by incision of the tail tip, 5-6 μl of blood was used for each assay. […]

| Structure (SMILES) | glucose level during oral glucose tolerance test (OGTT) |
| --- | --- |
| CCc1nc(N)nc(SCc2ncc(-c3cccc(Cl)c3)o2)n1 [Compound Z1558775684, 4-(((5-(3-chlorophenyl)oxazol-2-yl)methyl)thio)-6-ethyl-1,3,5-triazin-2-amine] | Statistically significant decrease in glucose level |
| CN(C)C(=N)N=C(N)N [Metformin] | Statistically significant decrease in glucose level |
